According to patent EP4786487A1, “PEPTIDE” (Peptidream Inc, priority 2023, dated 2025):
Like-named read-outs stand apart in the source and are kept apart here. Starred links: 1 amine or outer side, 2 acyl side, 3 side chain; linkers in the order of their positions; H or OH if unused. Positions of bridges follow the written chain, without caps; N, C: chain ends. Non-standard residues stand in square brackets, D forms with d. Residues, ends and D or L forms follow the SMILES beside them. *: point of attachment. Phe(3-OCH2COOH) = N[C@@H](Cc1cccc(OCC(=O)O)c1)C(=O)O; Trp(6-OH) = N[C@@H](Cc1c[nH]c2cc(O)ccc12)C(=O)O; Phe(4-COOH) = N[C@@H](Cc1ccc(C(=O)O)cc1)C(=O)O; Piperazinyl(4-CH2COOH) = O=C(O)CN1CCN(*)CC1; Gly(decyl) = CCCCCCCCCC[C@H](N)C(=O)O; Gly(octyl) = CCCCCCCC[C@H](N)C(=O)O; X1 = CCCCCCC[C@H](N[*:1])C(=O)[*:2]; Gly(N-(CH2)3OMe) = COCCCNCC(=O)O; NMeF = CN[C@@H](Cc1ccccc1)C(=O)O; NMeE = CN[C@@H](CCC(=O)O)C(=O)O; NMeA = CN[C@@H](C)C(=O)O; Bn = c1ccc(C*)cc1; NEtG = CCNCC(=O)O; Sar = CNCC(=O)O

Experiments:
Type in all cases: cell-based
[1] = target: T1, Myostatin (Homo sapiens, UniProt O14793); assay: Reporter gene assay for myostatin signaling in HepG2 cell line, Evaluation Procedure (1), myostatin inhibition; conditions: read-out: IC50 (Luciferase) Myostatin HepG2
T1 construct: active myostatin (also called mature myostatin) is a homodimer consisting of two C-terminal growth factor domains; purchased R&D systems 788-G8/CF
T1 sequence (O14793 267-375): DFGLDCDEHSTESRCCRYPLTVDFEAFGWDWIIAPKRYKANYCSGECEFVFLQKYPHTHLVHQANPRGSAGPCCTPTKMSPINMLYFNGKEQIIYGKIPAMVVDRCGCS
Procedure, shortened: (§1)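 IC50 derived from One-Glo luciferase luminescence after 20–24 h at 37 °C. Peptides titrated 4-fold at 0.006–100 nmol/L against myostatin or 0.12–2000 nmol/L against GDF-11 in HepG2 cells carrying a transfected CAGA12-luciferase reporter, kept in 0.1% BSA EMEM.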

[2] = tested on: Myostatin; assay: as above; conditions: GDF-11 IC50 versus Myostatin IC50
Procedure, shortened: as §1

[3] = target: T2, GDF-11 (Homo sapiens, UniProt O95390); assay: Reporter gene assay for myostatin signaling in HepG2 cell line, Evaluation Procedure (1), GDF-11 inhibition; conditions: read-out: IC50 (Luciferase) GDF-11 HepG2
T2 construct: purchased R&D systems 1958-GD-G8/CF
T2 sequence (O95390 299-407): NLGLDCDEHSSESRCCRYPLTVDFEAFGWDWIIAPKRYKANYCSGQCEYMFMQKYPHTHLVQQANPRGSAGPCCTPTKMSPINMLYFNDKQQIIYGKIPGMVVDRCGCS
Procedure, shortened: as §1

[4] = target: T1, Myostatin; assay: HepG2 reporter gene assay, Evaluation Procedure (2): 2-concentrations assay, myostatin inhibition; conditions: Myostatin 10 ng/mL, HepG2
Procedure, shortened: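 Myostatin inhibition was measured in a luciferase reporter assay using HepG2 cells transfected with a pGL3 vector containing 12 CAGA repeats upstream of luciferase. After 20 to 24 hours with 10 ng/mL myostatin, cells received One-Glo:PBS (1:1) at 100 µL/well, were shaken for 5 min, and 20 µL/well was moved to 384-well plates and read on an Envision 2104.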

[5] = target: T2, GDF-11; assay: HepG2 reporter gene assay, Evaluation Procedure (2): 2-concentrations assay, GDF-11 inhibition; conditions: GDF-11 10 ng/mL
Procedure, shortened: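 HepG2 cells carrying the transfected pGL3(CAGA)12-luc reporter, a pGL3 vector with luciferase placed downstream of 12 CAGA repeats, were stimulated with GDF-11 at a final 10 ng/mL together with test peptide. Blank wells received no GDF-11 and no peptide. Plates were incubated 20 to 24 hours at 37°C with 5% CO2. Luminescence from One-Glo substrate was read to calculate percent inhibition.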

| SMILES | IC50 ([1]; Method B: Myostatin 1 ng/mL) [nM] | Selectivity ([2]; Method B) | IC50 ([3]; Method B: GDF-11 1 ng/mL) [nM] | inhibition at 0.03 µM ([4]; peptide 30nM, read-out: Myostatin Inhibition 30nM) [%] | inhibition at 0.1 µM ([4]; peptide 100nM, read-out: Myostatin Inhibition 100nM) [%] | inhibition at 0.03 µM ([5]; HepG2, peptide 30nM, read-out: GDF11 Inhibition 30nM) [%] | inhibition at 0.1 µM ([5]; HepG2, peptide 100nM, read-out: GDF11 Inhibition 100nM) [%] | IC50 ([1]; Method D: Myostatin 1.5 ng/mL) [nM] | Selectivity ([2]; Method D) | IC50 ([3]; Method D: GDF-11 1.5 ng/mL) [nM] |
| --- | --- | --- | --- | --- | --- | --- | --- | --- | --- | --- |
| CCCCCCC[C@@H]1NC(=O)[C@H](Cc2ccccc2)N(C)C(=O)[C@H](CCCNC(=N)N)NC(=O)[C@H](Cc2ccc(C(=O)O)cc2)NC(=O)[C@H](Cc2cccc(OCC(=O)O)c2)NC(=O)CN(C)C(=O)[C@H]([C@@H](C)CC)NC(=O)[C@H](Cc2ccccc2)N(C)C(=O)[C@H](Cc2ccc(OCc3ccccc3)cc2)NC(=O)[C@H](Cc2c[nH]c3ccccc23)NC(=O)[C@H](C)NC(=O)[C@H](C)NC(=O)CSC[C@H](C(=O)N2CCN(CC(=O)O)CC2)NC(=O)[C@H](Cc2ccccc2)N(C)C(=O)[C@H](C)N(C)C1=O [Myostatin_99_v298] ({CH2CO}-AAWY(Bn)[NMeF]I[Sar][Phe(3-OCH2COOH)][Phe(4-COOH)]R[NMeF][X1][NMeA][NMeF][dC]-{Piperazinyl(4-CH2COOH)}; thioether N-15) | 0.11 | 62 | 6.8 | 100 | 100 | 12 | 55 |  |  |  |
| CCCCCCCCCC[C@@H]1NC(=O)[C@H](Cc2ccccc2)N(C)C(=O)[C@H](CCCNC(=N)N)NC(=O)[C@H](Cc2ccc(C(=O)O)cc2)NC(=O)[C@H](Cc2cccc(OCC(=O)O)c2)NC(=O)CN(CC)C(=O)[C@H]([C@@H](C)CC)NC(=O)[C@H](Cc2ccccc2)N(C)C(=O)[C@H](Cc2ccc(O)cc2)NC(=O)[C@H](Cc2c[nH]c3cc(O)ccc23)NC(=O)[C@H](C)NC(=O)[C@H](C)NC(=O)CSC[C@H](C(=O)N2CCN(CC(=O)O)CC2)NC(=O)[C@H](Cc2ccccc2)N(C)C(=O)[C@H](CCC(=O)O)N(C)C1=O [Myostatin_99_v385] ({CH2CO}-AA[Trp(6-OH)]Y[NMeF]I[NEtG][Phe(3-OCH2COOH)][Phe(4-COOH)]R[NMeF][Gly(decyl)][NMeE][NMeF][dC]-{Piperazinyl(4-CH2COOH)}; thioether N-15) |  |  |  |  |  |  |  | 0.17 | 251.449 | 42.5 |
| CCCCCCCC[C@@H]1NC(=O)[C@H](Cc2ccccc2)N(C)C(=O)[C@H](CCCNC(=N)N)NC(=O)[C@H](Cc2ccc(OC)cc2)NC(=O)[C@H](Cc2cccc(OCC(=O)O)c2)NC(=O)CN(C)C(=O)[C@H]([C@@H](C)CC)NC(=O)[C@H](Cc2ccccc2)N(C)C(=O)[C@H](Cc2ccc(O)cc2)NC(=O)[C@H](Cc2c[nH]c3cc(O)ccc23)NC(=O)[C@H](C)NC(=O)CN(CCCOC)C(=O)CSC[C@H](C(N)=O)NC(=O)[C@H](Cc2ccccc2)N(C)C(=O)[C@H](C)N(C)C1=O [Myostatin_99_v418] ({CH2CO}-[Gly(N-(CH2)3OMe)]A[Trp(6-OH)]Y[NMeF]I[Sar][Phe(3-OCH2COOH)]Y(Me)R[NMeF][Gly(octyl)][NMeA][NMeF][dC]-NH2; thioether N-15) |  |  |  |  |  |  |  | 0.22 | 136.2 | 29.6 |
